The record followed here is US11311599B2, “β-1,3-glucan-peptide complex: compositions and methods” (priority 2018, dated 2022).

Data set [1] has as its system NADPH oxidase. The data set can be described thus: NADPH oxidase activity in LPS-stimulated RAW2647 cells (lucigenin-ECL superoxide). In kind it is cell-based, mouse. The conditions noted are these: RAW2647 cells stimulated with LPS; treated at 1, 5 or 10 μg/mL; FIG. 2. The method, then: A mouse macrophage cell line, which is RAW2647 (ATCCTIB-71; American Type Culture Collection) cells, was cultured using DMEM (Invitrogen) containing 10% fetal bovine serum (FBS; Invitrogen), sodium pyruvate, non-essential amino acids, penicillin G (100 IU/ml) and streptomycin (100 μg/ml).
Whether reactive oxygen species (ROS) production is inhibited when RAW2647 cells were treated with each of SPG-SH1, SPG-SH2 or SPG-SH3 was determined. Particularly. NADPH oxidase (NOX) activity and a mitochondrial ROS level were confirmed.
Particularly, after the RAW2647 cells were stimulated with LPS, SPG-SH1, SPG-SH2 or SPG-SH3 was treated at a concentration of 1, 5 or 10 μg/mL, respectively. The NADPH oxidase activity was confirmed by measuring the production of a superoxide in the RAW2647 cells by a lucigenin (bis-N-methylacridinium nitrate)-ECL method. The production of mitochondrial ROS was determined by staining the RAW2647 cells with 5 μM of MitoSOX for 30 minutes and then measuring mean fluorescence intensity (MFI) by FACS analysis.

A further data set relates to TNF-α. The experiment in a line: TNF-α in peripheral blood of CLP mice (ELISA). Format: in vivo, mouse. The settings on record: 20 hours after treatment, FIG. 5. The protocol: (§1) Sepsis mouse models induced by cecal ligation and puncture (CLP) were prepared using 6-week-old C57BL/6 female mice (Samtako, Korea). All animal-related procedures were approved by the Institutional Animal Care and Use Committee of Hanyang University. The CLP mice were intraperitoneally administered three times (at 3, 6 and 12 hours) with an administered substance shown in Table 1. SPG-SC is a peptide complex having a sequence in which SPG-SH3 sequences were randomly mixed, and as the antibiotic, a combination of gentamycin and cephalosporin was used.
(§2) Whether a pro-inflammatory cytokine was inhibited when CLP mice were treated with a combination of SPG-SH3 and an antibiotic was determined.
(§3) Specifically, 20 hours after CLP mice were treated with the same administered substances as in Example <1-1>, the peripheral blood was obtained. The concentrations of TNF-α, IL-6, IL-1β and IL-18 in the blood were measured using an ELISA kit (BD Biosciences).
(An ELISA detects its analyte on a solid surface through an enzyme-linked reagent.)

Data set [2] has as its system CLP mice. The data set can be described thus: Survival of mice with CLP-induced sepsis. Format: in vivo, mouse. The settings on record: approximately 60 hours after CLP treatment, doses of Table 1, FIG. 4. The method, then: (§4) The pharmaceutical composition of the present invention was intraperitoneally administered into a CLP mouse to confirm an antiinflammatory effect thereof. Specifically, the CLP mouse was anesthetized by administering pentothal sodium (50 mg/kg) intraperitoneally, and then its abdomen was dissected to expose the cecum. The cecum was ligated below the ileocecal valve, punctured twice with a 22-gauge needle, and then the abdomen was closed.
as §1
Specifically. CLP mice (n=7, twice; total 14) were treated with the administered substances as in Example <1-1> and monitored for 7 days.

The subject of data set [3] is CLP mice. The experiment in a line: Total ROS in spleen of CLP mice. Format: in vivo. The conditions noted are these: spleen of CLP mouse; intraperitoneal at 3, 6 and 12 hours, doses of Table 1; FIG. 3. The method, then:
as §4, §1
(§5) Particularly, CLP mice (n=5) treated with the same administered substances as in Example <1-1> were prepared. […] Alternatively, the spleen of the CLP mouse was obtained and fractionated, a 5 μM reagent in a mitochondrial ROS activity assay kit (CA-R933) was treated for 60 minutes, and Ex/Em was measured at 490/525 nm. […]

The next data set relates to IL-18. The data set can be described thus: IL-18 in peripheral blood of CLP mice (ELISA). Format: in vivo, mouse. The conditions noted are these: 20 hours after treatment, FIG. 5. The method, then: as §1, §2, §3
Data set [4] concerns NADPH oxidase. The data set can be described thus: NADPH oxidase activity in spleen of CLP mice. The settings on record: spleen of CLP mouse; intraperitoneal at 3, 6 and 12 hours, doses of Table 1; FIG. 3. Format: in vivo. The method, then:
as §4, §1, §5

In another data set the test system is IL-6. The data set can be described thus: IL-6 in peripheral blood of CLP mice (ELISA). Format: in vivo, mouse. The conditions noted are these: 20 hours after treatment, FIG. 5. The protocol:
as §1, §2, §3

The next data set has as its system IL-1β. The experiment in a line: IL-1β in peripheral blood of CLP mice (ELISA). In kind it is in vivo, mouse. The settings on record: 20 hours after treatment, FIG. 5. The protocol: as §1, §2, §3

No end group written: not given here.

Sequence of NADPH oxidase (O70145 whole entry): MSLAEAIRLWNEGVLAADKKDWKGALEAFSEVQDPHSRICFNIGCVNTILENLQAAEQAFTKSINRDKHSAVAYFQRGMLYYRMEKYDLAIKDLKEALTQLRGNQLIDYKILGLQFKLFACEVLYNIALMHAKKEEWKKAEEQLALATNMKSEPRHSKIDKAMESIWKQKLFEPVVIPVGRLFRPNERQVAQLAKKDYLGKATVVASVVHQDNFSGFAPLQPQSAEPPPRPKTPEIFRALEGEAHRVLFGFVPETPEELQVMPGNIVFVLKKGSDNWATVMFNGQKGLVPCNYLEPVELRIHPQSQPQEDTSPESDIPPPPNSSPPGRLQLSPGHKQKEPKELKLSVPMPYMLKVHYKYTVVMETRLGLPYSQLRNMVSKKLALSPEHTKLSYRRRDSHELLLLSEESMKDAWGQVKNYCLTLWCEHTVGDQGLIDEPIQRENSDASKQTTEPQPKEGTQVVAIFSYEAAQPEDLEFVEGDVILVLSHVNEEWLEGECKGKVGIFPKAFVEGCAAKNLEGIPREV
Sequence of NADPH oxidase (Q09014 whole entry, further chain): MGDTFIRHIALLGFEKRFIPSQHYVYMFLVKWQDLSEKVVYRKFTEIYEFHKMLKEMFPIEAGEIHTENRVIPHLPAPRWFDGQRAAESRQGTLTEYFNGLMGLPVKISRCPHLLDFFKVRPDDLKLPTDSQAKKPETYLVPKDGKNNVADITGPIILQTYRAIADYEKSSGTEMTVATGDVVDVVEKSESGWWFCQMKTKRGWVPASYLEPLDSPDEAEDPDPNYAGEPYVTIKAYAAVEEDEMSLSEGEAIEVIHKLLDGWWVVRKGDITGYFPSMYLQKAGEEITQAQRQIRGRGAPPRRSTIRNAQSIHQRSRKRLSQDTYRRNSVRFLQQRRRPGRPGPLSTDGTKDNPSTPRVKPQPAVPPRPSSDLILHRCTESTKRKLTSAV

Take “SH3: SH3 peptide, SEQ ID NO: 4, ALLSFKKGGQTGYIPSNYV, 19 amino acids, from SH3-1 and SH3-2 sequences of c-Src (SH3)”: the NADPH oxidase activity entry in the data set on NADPH oxidase [1] was “lowest”.

In the case of “SPG-SH3: β-glucan-peptide complex: schizophyllan (β-1,3-glucan) carboxylated and linked to amine group of SH3 peptide (SEQ ID NO: 4, ALLSFKKGGQTGYIPSNYV) (also: linked via amine group to carboxylated schizophyllan β-glucan)”, the NADPH oxidase activity result with NADPH oxidase [1] was “lowest”. Besides, in the data set on TNF-α, the “concentration of TNF-α” value is reported as “significantly reduced”. Moreover, the survival rate result with CLP mice [2] was “approximately 70%”. Also, the “total ROS level” value in the data set on CLP mice [3] is on record as “significantly reduced”. Besides, the “concentration of IL-18” value in the data set with IL-18 is “significantly reduced”. The “NADPH oxidase activity level” value with NADPH oxidase [4] is “significantly reduced”. Further, in the data set on IL-6, the “concentration of IL-6” value is “significantly reduced”. Moreover, the “concentration of IL-1β” value in the data set with IL-1β is “significantly reduced”.
